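Interpolation was linear, between the two tested concentrations surrounding the appropriate level; five concentrations were tested over 48 hours in 96-well plates. GI50 is the concentration that inhibits growth by half. TGI: total growth inhibition.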
Columns and labels:
Assay in all cases: DTP human tumour cell line panel, 48 h
[1] = system: SNB-19 CNS
[2] = system: SF-268 CNS
[3] = system: OVCAR-4 ovarian
[4] = system: K-562 leukemia
[5] = system: BT-549 breast
[6] = system: RPMI-8226 leukemia
[7] = system: HT29 colon
[8] = system: HCT-116 colon
[9] = system: IGROV1 ovarian
[10] = system: CCRF-CEM leukemia
[11] = system: OVCAR-3 ovarian
[12] = system: LOX IMVI melanoma
[13] = system: SR leukemia
[14] = system: HOP-92 NSCLC
[15] = system: DU-145 prostate
[16] = system: NCI-H226 lung
[17] = system: HS 578T breast
[18] = system: ACHN renal
[19] = system: OVCAR-8 ovarian
[20] = system: NCI-H460 lung
[21] = system: HL-60(TB) leukemia
[22] = system: COLO 205 colon
[23] = system: SK-MEL-2 melanoma
[24] = system: PC-3 prostate
[25] = system: MOLT-4 leukemia
[26] = system: SF-539 CNS
[27] = system: HOP-62 NSCLC
[28] = system: 786-0 renal
[29] = system: SK-MEL-5 melanoma
[30] = system: UACC-257 melanoma
[31] = system: HCT-15 colon
[32] = system: TK-10 renal
[33] = system: OVCAR-5 ovarian
[34] = system: U251 CNS
[35] = system: UO-31 renal
[36] = system: A549 NSCLC
[37] = system: EKVX NSCLC
[38] = system: SK-OV-3 ovarian
[39] = system: SK-MEL-28 melanoma
[40] = system: MDA-MB-435
[41] = system: A498 renal
[42] = system: NCI-H23 lung
[43] = system: SNB-75 CNS
[44] = system: NCI/ADR-RES ovarian
[45] = system: MALME-3M melanoma
[46] = system: HCC-2998 colon
[47] = system: T-47D breast
[48] = system: MDA-MB-231 breast
[49] = system: SW-620 colon
[50] = system: SF-295 CNS
[51] = system: KM12 colon
[52] = system: NCI-H522 lung
[53] = system: MCF7 breast
[54] = system: SN12C renal
[55] = system: RXF 393 renal
[56] = system: CAKI-1 renal
[57] = system: UACC-62 melanoma

CCN(CC)c1ccc(/C=N/NC(=O)c2ccc(S(N)(=O)=O)cc2)cc1
GI50 [1]: 1120 nM | TGI [1]: > 64800 nM | GI50 [2]: 328 nM | TGI [2]: 25800 nM | GI50 [3]: 397 nM | TGI [3]: > 77600 nM | GI50 [4]: 479 nM | TGI [4]: > 100000 nM | GI50 [5]: 1000 nM | TGI [5]: 8290 nM | GI50 [6]: 2840 nM | TGI [6]: 13700 nM | GI50 [7]: 614 nM | TGI [7]: 17300 nM | GI50 [8]: 324 nM | TGI [8]: 19200 nM | GI50 [9]: 690 nM | TGI [9]: > 100000 nM | GI50 [10]: 178 nM | TGI [10]: > 100000 nM | GI50 [11]: 244 nM | TGI [11]: > 100000 nM | GI50 [12]: 271 nM | TGI [12]: 4510 nM | GI50 [13]: 83.9 nM | TGI [13]: 3070 nM | GI50 [14]: 430 nM | TGI [14]: 14600 nM | GI50 [15]: 828 nM | TGI [15]: > 58600 nM | GI50 [16]: 1390 nM | TGI [16]: 23900 nM | GI50 [17]: 2370 nM | TGI [17]: 40800 nM | GI50 [18]: 605 nM | TGI [18]: 22300 nM | GI50 [19]: 406 nM | TGI [19]: > 52600 nM | GI50 [20]: 510 nM | TGI [20]: 10400 nM | GI50 [21]: 255 nM | TGI [21]: 4380 nM | GI50 [22]: 437 nM | TGI [22]: 19000 nM | GI50 [23]: 3170 nM | TGI [23]: 20700 nM | GI50 [24]: 469 nM | TGI [24]: 73400 nM | GI50 [25]: 373 nM | TGI [25]: 15000 nM | GI50 [26]: 488 nM | TGI [26]: 8110 nM | GI50 [27]: 338 nM | TGI [27]: 11900 nM | GI50 [28]: 610 nM | TGI [28]: 4670 nM | GI50 [29]: 1420 nM | TGI [29]: > 100000 nM | GI50 [30]: 869 nM | TGI [30]: 7900 nM | GI50 [31]: 419 nM | TGI [31]: 44200 nM | GI50 [32]: 1760 nM | TGI [32]: 47800 nM | GI50 [33]: 2580 nM | TGI [33]: > 100000 nM | GI50 [34]: 268 nM | TGI [34]: 18700 nM | GI50 [35]: 487 nM | TGI [35]: 24000 nM | GI50 [36]: 1780 nM | TGI [36]: > 100000 nM | GI50 [37]: 782 nM | TGI [37]: > 82100 nM | GI50 [38]: 533 nM | TGI [38]: 21400 nM | GI50 [39]: 495 nM | TGI [39]: > 67400 nM | GI50 [40]: 975 nM | TGI [40]: > 100000 nM | GI50 [41]: 4260 nM | TGI [41]: 29300 nM | GI50 [42]: 2110 nM | TGI [42]: > 100000 nM | GI50 [43]: 496 nM | TGI [43]: 5910 nM | GI50 [44]: 3110 nM | TGI [44]: > 100000 nM | GI50 [45]: 856 nM | TGI [45]: 11300 nM | GI50 [46]: 612 nM | TGI [46]: 51000 nM | GI50 [47]: 686 nM | TGI [47]: > 72300 nM | GI50 [48]: 525 nM | TGI [48]: 64300 nM | GI50 [49]: 597 nM | TGI [49]: > 100000 nM | GI50 [50]: 739 nM | TGI [50]: 18300 nM | GI50 [51]: 811 nM | TGI [51]: > 63300 nM | GI50 [52]: 403 nM | TGI [52]: 23200 nM | GI50 [53]: 488 nM | TGI [53]: > 100000 nM | GI50 [54]: 957 nM | TGI [54]: > 100000 nM | GI50 [55]: 1100 nM | TGI [55]: 3800 nM | GI50 [56]: 488 nM | TGI [56]: 25800 nM | GI50 [57]: 499 nM | TGI [57]: 8780 nM
